Test results reported in patent US12311019B2, “Vaccine composition and uses thereof” (Imugene Limited, priority 2018, dated 2025).
Entries after “also recorded” stand apart in the source; their conditions may differ.

Legend:
[1] = test system: rat anti-mouse PD1 monoclonal antibody (mAb) (Biolegend, clone 29F.1A12); assay: Colony blot assay of E. coli clones expressing GST-fused overlapping mPD1 peptides; assay type: binding; conditions: GST-fused 15-mer
From the text: The protein sequence corresponding to the extracellular domain of mouse PD-1 (Q02242; Uniprot) was electronically back-translated into DNA sequences (ATG:Biosynthetics GmbH; Merzhausen, Germany). The protein-coding DNA sequences were partitioned into uniformly sized peptide-CDS as overlapping peptides in 15 amino acids (aa) length, with an offset of 3 aa, and the resulted DNA sequences were inserted into the expression vector pEPX-1 (ATG:Biosynthetics GmbH; Merzhausen, Germany). […] Expression vectors were used for transformation of E. coli strain BL21. Colonies (clones) of E. coli harbouring the expression vectors were picked from plates supplemented with Kanamycin and used for screening by colony blot assay. A colony harbouring the expression vector with no insert (i.e. control) was also picked.
The clones of interest were replicated onto nitrocellulose membranes and lysed with lysis solution (Tris-HCl pH 8.0 50 mM, Lysozyme 200 μg/ml), followed by three cycles of freezing at −80C and thawing at 37C. After the last step of thawing, the membranes were incubated with the blocking solution containing PBS-5% skim milk. The blocking solution was discarded and the membranes were incubated for 2 h at RT with rat anti-mouse PD1 monoclonal antibody (mAb) (Biolegend, clone 29F.1A12). […]

[2] = target: T1, Jurkat T cells expressing mPD1 (Mus musculus, UniProt Q02242); assay: Inhibition of anti-mouse PD1 mAb binding to mPD1-positive Jurkat T cells; assay type: cell-based; conditions: mAb pre-incubated with different concentrations of JT-mPD1
T1 construct: expressed in transfected cells; host or cells: Jurkat E6.1 NF-kB::eGFP reporter T cells (human)
T1 sequence (Q02242 25-288): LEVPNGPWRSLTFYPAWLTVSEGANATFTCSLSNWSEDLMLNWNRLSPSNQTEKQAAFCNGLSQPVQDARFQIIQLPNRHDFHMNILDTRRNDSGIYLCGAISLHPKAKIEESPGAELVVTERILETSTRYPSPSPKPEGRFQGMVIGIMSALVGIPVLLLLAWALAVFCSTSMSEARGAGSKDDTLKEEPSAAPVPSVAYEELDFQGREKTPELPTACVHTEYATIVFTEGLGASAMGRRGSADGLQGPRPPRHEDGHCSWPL
Experimental: To produced T cells expressing mouse PD-1, Jurkat E6.1 NF-κB::eGFP reporter T cell line and the K562 stimulator cell line were cultured as previously described (Battin et al. PLoS One, 2017, 12(5):e0178220; PMID: 28542462). JE6.1 NF-kB::eGFP reporter cells expressing mouse PD-1 have been previously described (Jutz et al. Oncotarget, 2017, 8(39):64892-64906; PMID: 29029399). T cell stimulator cells, based on the K562 cell line (K562S), were generated by retrovirally transducing a CD5L-OKT3scFv-CD14 construct encoding an anti-human CD3 single chain fragment fused to human CD14 (Leitner et al. J. Immunol. Methods, 2010, 362(1-2):131-141; PMID: 20858499). K562S stimulate human T cells and T cell lines by ligating their TCR-CD3 complex. In order to separate stimulator cells from reporter cells, K562S were engineered to constitutively express a red fluorescent protein (RFP). […] To confirm cell surface expression of respective molecules, a PE-conjugated anti-mPD-1 antibody (29F.1A12) from Biolegend (San Diego, CA) was used. Membrane-bound anti-CD3 fragment on K562S cells was detected with a PE-conjugated goat-anti-mouse IgG (H+L) antibody (Jackson ImmunoResearch, West Grove, PA). […] Data was analysed using FlowJo software (version 10.0.8., Tree Star, Ashland, OR) and Graphpad Prism (version 5, GraphPad Software, Inc., La Jolla, CA). […]

[3] = target: PD1 (SEQ ID NO:1) conjugated to a His tag (Homo sapiens, UniProt Q15116); assay: ELISA of anti-PD1 antibody titre in immunised rabbits on PD1 coated plates; assay type: binding; conditions: rabbits immunised with KLH-conjugated peptide in Freund's adjuvant
Experimental: Approximately 250-500 μg of each KLH-conjugated peptide fragment was diluted with saline and subsequently emulsified in complete or incomplete Freund's adjuvant at a mass ratio of 1:1. The emulsified solution was administered to rabbits by subcutaneous injection around the shoulders and intramuscular injection into the legs in accordance with the following immunization protocol: • i. Day 00—Serum collected 2 ml (for 0.5-1.0 ml pre-immune serum; • ii. Day 01—1st-immunization, complete Freund's adjuvant, 500 μg peptide fragment; • iii. Day 15—2nd-immunization, complete Freund's adjuvant, 500 μg peptide fragment; • iv. Day 29—3rd-immunization, incomplete Freund's adjuvant, 250 μg peptide fragment; • v. Day 35—Serum collected, 2-3 ml for assessment of anti-PD1 antibody titre by ELISA; • vi. Day 36—4th-immunization, incomplete Freund's adjuvant, 250 μg peptide fragment (optional); • vii. Day 43—5th-immunization, incomplete Freund's adjuvant. 250 μg peptide fragment (optional); • viii. Day 50—6th-immunization, incomplete Freund's adjuvant 250 μg peptide fragment (optional); • ix. Day 57—7th-immunization, incomplete Freund's adjuvant 250 μg peptide fragment (optional); • x. Day 63—Blood sample is collected from the immunised rabbits. B. Assessment of Anti-PDJ Antibody Titre in Immunised Rabbits by ELISA
An enzyme-linked immunosorbent assays (ELISA) was used to measure the anti-PD1 antibody titre in the blood samples collected from the immunized rabbits. Briefly, microtiter plates were coated with PD1 (SEQ ID NO:1) conjugated to a His tag. After blocking the wells of the microtiter plates with BSA to minimise non-specific binding, diluted sera from the immunized rabbits were added to the plates and incubated on a shaker for around 1 hr at 20° C. (or alternatively overnight at 4° C.). The plates were then washed four times with PBS/0.1% v/v Tween 20 and excess wash buffer was removed from each well.
Approximately 100 μL of a horseradish peroxidase-labeled anti-rabbit antibody was then added to each well and incubated for around 1 hr at 20° C. The plates were then washed four times with PBS/0.1% v/v Tween 20 and excess wash buffer was removed from each well. The plates were then washed twice with PBS only, to remove traces of Tween remaining from the washing buffer.
To detect the presence of horseradish peroxidase-labeled, anti-rabbit antibody, 100 μL of 1-Step™ ABTS (Pierce Cat. No. 37615) was added to each well and incubated for up to 45 min at 20° C. The absorbance of any colour change in each well was read using a microtitre Titertek Multiskan MC plate reader in the dual wavelength mode at 405 nm against a reference wavelength of 492 nm and compared to appropriate negative controls, such as the colour change observed in a well to which no PD1 was added, to which no immunised rabbit sera was added and/or to which no horseradish peroxidase-labeled, anti-rabbit antibody was added.
Approximately 250-500 μg of each KLH-conjugated fusion peptides were diluted with saline and subsequently emulsified in complete or incomplete Freund's adjuvant at a mass ratio of 1:1. The emulsified solutions were administered to rabbits by subcutaneous injection around the shoulders and intramuscular injection into the legs in accordance with the immunization protocol of Example 2, above.
An enzyme-linked immunosorbent assays (ELISA) was used to measure the anti-PD1 antibody titre in the blood samples collected from the immunized rabbits, in accordance with the methodology set out in Example 2 above. The absorbance readings from the ELISA assay are shown in Table 8, below (SEQ TD NO:9 is underlined): […]

[4] = test system: PD1 protein from other species—mouse, rat, Rhesus monkey, Cynomolgus monkey and canine; assay: Cross-reactivity ELISAs, summary over species; assay type: binding; conditions: for cross-reactivity of affinity-purified anti-PD1 antibodies from animals immunised with the peptide with PD1 protein from other species: mouse, rat, Rhesus monkey, Cynomolgus monkey and canine
Experimental: To assess whether or not the anti-human PD1 antibodies raised in the immunised rabbits would cross-react with PD1 of other species, the anti-PD1 antisera from the Examples 7 and 8, above, were screened in an ELISA assay for binding to mouse, rhesus monkey, canine and rat PD1 proteins.
A further ELISA assay was performed to make a direct comparison of the cross-reactivity of anti-human PD1 antibodies raised in the immunised rabbits (Rabbits 1 and 2) to PD1 proteins of different species.

PD1 (SEQ ID NO:1) conjugated to a His tag, sequence (Q15116 25-170): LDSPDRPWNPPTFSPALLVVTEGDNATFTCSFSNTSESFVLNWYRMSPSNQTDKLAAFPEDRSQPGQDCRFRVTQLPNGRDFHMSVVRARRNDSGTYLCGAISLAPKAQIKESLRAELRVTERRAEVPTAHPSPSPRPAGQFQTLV

| Sequence | reactivity to the rat anti-mouse PD1 monoclonal antibody [1] | inhibition of binding of anti-mouse PD1 mAb to mPD1-positive Jurkat T cells [2] | anti-PD1 antibody response / titre raised in immunised rabbits (in words) [3] | species of greatest cross-reactivity of the anti-PD1 antibodies raised with the peptide [4] | cross-reactivity of affinity-purified anti-PD1 antibodies from animals immunised with the peptide with PD1 protein from other species [4] |
| --- | --- | --- | --- | --- | --- |
| ISLHPKAKIEESPGA (listed as Mus musculus) [JT-mPD1, amino acid residues 126-140 of mouse PD1 (Uniprot Q02242)] | reactive | dose-dependently inhibited; also recorded: inhibited dose-dependently |  |  |  |
| GWFLDSPDRPWNGAISLAPKAQIK (listed as Homo sapiens) [SEQ ID NO:56] |  |  | Anti-PD1 antibodies were also raised | greatest cross-reactivity to PD1 protein from Rhesus and Cynomolgus monkeys | at least some cross-reactivity |
| LAAFPEDRSQPG (listed as Homo sapiens) [SEQ ID NO:28] |  |  | raising an anti-PD1 antibody response; also recorded: sufficient anti-PD1 antibody titres | greatest cross-reactivity to PD1 protein from Rhesus and Cynomolgus monkeys | at least some cross-reactivity |
